# Measurements: patent US6906035B2, “Antimicrobial cationic peptides” (priority 1995, dated 2005)
# Values joined by “and” are separate entries in the source; they are usually repeats but may differ in a detail not shown here. Identical values can stand only once. Like-named read-outs stand apart in the source and are kept apart here. Ends that are not written are not given here.
# Experiments:
# E. coli = test: MIC, broth dilution in LB-S; assay type: cell-based; details: for MIC E. coli 0111:B4: MBI 29 and MBI21 derivatives
# Experimental: (§1) The biological activity of the peptides can be determined by standard methods known to those of skill in the art, such as “minimal inhibitory concentration (MIC)” assay described in the present examples, whereby the lowest concentration at which no change in OD is observed for a given period of time is recorded as MIC. Alternatively, “fractional inhibitory concentration (FIC)” is also useful for determination of synergy between the peptides of the invention, or the peptides in combination with known antibiotics. FICs are performed by checkerboard titrations of peptides in one dimension of a microtiter plate, and of antibiotics in the other dimension, for example. The FIC is calculated by looking at the impact of one antibiotic on the MIC of the other and vice versa. […] Preferably, an FIC of less than 0.5 is obtained for synergism. As used herein, FIC can be determined as follows: [formula]
# (§2) Briefly, cells were grown overnight at 37° C. in LB-S (Luria broth without any salt supplement) and diluted one in 10,000 in the same medium to give concentrations of about 10^4 to 10^5 CFU/ml. The broth dilutions were set up in a 96 well microtiter plate by putting 200 μl of LB-S containing the initial concentration of antibiotic or compound in column 1 and 100 μl of the same medium in columns 2-12. The compounds were diluted by taking 100 μl of broth from column 1 and mixing it with column 2, resulting in a one in two dilution. This was continued to column 10. Finally, 10 μl of bacteria were pipetted into columns 1-11, and the plates incubated overnight at 37° C. The next day the plates were scored for growth in the wells, and the MIC determined.
# Red Blood Cells = test: Red blood cell lysis; assay type: cell-based; details: concentration lysing Red Blood Cells
# P. aeruginosa [1] = details: for MIC H103: MBI 29 and MBI21 derivatives
# Experimental: (§3) FICs are performed by checkerboard titrations of peptides in one dimension of a microtiter plate, and of antibiotics in the other dimension, for example. The FIC is calculated by looking at the impact of one antibiotic on the MIC of the other and vice versa. […] Preferably, an FIC of less than 0.5 is obtained for synergism. As used herein, FIC can be determined as follows: [formula]
# as §2
# B. Subtilis = test: MIC, broth dilution in LB-S; assay type: cell-based; details: MBI 29 and MBI21 derivatives
# Experimental: as §1, §2
# S. aureus = test: MIC, broth dilution in LB-S; assay type: cell-based; details: for MIC K147 / MIC SAP: MBI 29 and MBI21 derivatives; for MIC: Table 1a
# Experimental: as §1, §2
# E. faecalis = test: MIC, broth dilution in LB-S; assay type: cell-based; details: MBI 29 and MBI21 derivatives
# Experimental: as §1, §2
# C610 = test: MIC, broth dilution in LB-S; assay type: cell-based, S. typhimurium; details: MBI 29 and MBI21 derivatives
# Experimental: as §1, §2
# S. epidermis = details: for MIC S. epi 0017: MBI 29 and MBI21 derivatives
# Experimental: as §3, §2
# X. maltophila = test: organism not typed; details: agent alone
# Experimental: as §3
# (§4) Synergism is identified as an FIC of about ≦0.5.
# P. aeruginosa [2] = test: microbe, parasite or virus in culture; details: agent alone
# Experimental: as §3, §4
# A. calcoaceticus = details: agent alone
# Experimental: as §3, §4
# Candida albicans = test: MIC, broth dilution in LB-S; assay type: cell-based; details: Candida alibicans (CAN105); Table 1a
# Experimental: as §3, §2
# E. cloacae = details: agent alone
# Experimental: as §3, §4
# [3] = X. maltophila isolate 36, strain 16
# [4] = X. maltophila isolate 39, strain B3110.1
# [5] = X. maltophila isolate 43, strain TF29-2
# [6] = P. aeruginosa isolate 24, strain 34
# [7] = P. aeruginosa isolate 27, strain 14644
# [8] = P. aeruginosa isolate 30, strain B3999-1
# [9] = A. calcoaceticus isolate 1, strain ATCC 23055
compound,measurement,setting,value
KWKKFIKELQKVLAPGGLLSNIVTSL [compound 493],MIC E. coli (UB 1005),"E. coli; E. coli (UB 1005), Table 6",5 µg/mL
same,RBC Lysis,Red Blood Cells,>55 µg/mL
same,MIC P. aeruginosa (H187),"P. aeruginosa [1]; P. aeruginosa (H187), Table 6",10 µg/mL
KKWWRRVLSGLKTAGPAIQSVLNK [MBI21A1],MIC B. Subtilis,B. Subtilis,>128 µg/mL
same,MIC K147,S. aureus,>128 µg/mL
same,MIC SAP,S. aureus,>128 µg/mL
same,MIC E. coli 0111:B4,E. coli,16 µg/mL
same,MIC E. faecalis,E. faecalis,>128 µg/mL
same,MIC C610,C610,16 µg/mL
same,MIC S. epi 0017,S. epidermis,128 µg/mL
same,MIC H103,P. aeruginosa [1],64 µg/mL
CC(C)(O/N=C(\C(=O)N[C@@H]1C(=O)N2C(C(=O)[O-])=C(C[n+]3ccccc3)CS[C@H]12)c1csc(N)n1)C(=O)O [Ceftazidime],MIC,"X. maltophila; X. maltophila isolate 35, strain 6",32 µg/mL
same,MIC,X. maltophila; [3],16 µg/mL
same,MIC,"X. maltophila; X. maltophila isolate 38, strain 7901",256 µg/mL
same,MIC,X. maltophila; [4],128 µg/mL
same,MIC,"X. maltophila; X. maltophila isolate 40, strain R1302-1",32 µg/mL
same,MIC,"X. maltophila; X. maltophila isolate 41, strain R4230",8 µg/mL
same,MIC,X. maltophila; [5],2 µg/mL
same,MIC,"X. maltophila; X. maltophila isolate 45, strain W11291",128 µg/mL and 256 µg/mL
same,MIC,P. aeruginosa [2]; [6],64 µg/mL
same,MIC,P. aeruginosa [2]; [7],256 µg/mL
same,MIC,"P. aeruginosa [2]; P. aeruginosa isolate 28, strain 15036",4 µg/mL
same,MIC,P. aeruginosa [2]; [8],8 µg/mL
same,MIC,A. calcoaceticus; [9],4 µg/mL
same,MIC,"A. calcoaceticus; A. calcoaceticus isolate 5, strain 8220",8 µg/mL
"KWKLFKKIGIGAVLKVLTTGLPALIS [CEME, reference compound]",MIC,S. aureus; S. aureus (K 147),32 µg/mL
same,MIC,S. aureus; S. aureus (SAP0017),24 µg/mL
same,MIC,"E. coli; E. coli (UB1005), Table 1a",5 µg/mL
same,MIC,Candida albicans,64 µg/mL
same,MIC,"S. epidermis; S. epidermis, Table 1a",16 µg/mL
same,MIC,"P. aeruginosa [1]; P. aeruginosa (H187), Table 1a",8 µg/mL
KWWRRALQGLKTAGPAIQSVLNK [MBI21A2],MIC B. Subtilis,B. Subtilis,>128 µg/mL
same,MIC K147,S. aureus,>128 µg/mL
same,MIC SAP,S. aureus,>128 µg/mL
same,MIC E. coli 0111:B4,E. coli,32 µg/mL
same,MIC E. faecalis,E. faecalis,>128 µg/mL
same,MIC C610,C610,16 µg/mL
same,MIC S. epi 0017,S. epidermis,>128 µg/mL
same,MIC H103,P. aeruginosa [1],128 µg/mL
NC[C@H]1O[C@H](O[C@H]2[C@H](O)[C@@H](O[C@H]3O[C@H](CO)[C@@H](O)[C@H](N)[C@H]3O)[C@H](N)C[C@@H]2N)[C@H](N)C[C@@H]1O [Tobramycin],MIC,X. maltophila; [3],128 µg/mL
same,MIC,X. maltophila; [4],16 µg/mL
same,MIC,"X. maltophila; X. maltophila isolate 42, strain TF29-1",1 µg/mL
same,MIC,X. maltophila; [5],1 µg/mL
same,MIC,"X. maltophila; X. maltophila isolate 44, strain W6896-2",8 µg/mL
same,MIC,P. aeruginosa [2]; [6],128 µg/mL
same,MIC,P. aeruginosa [2]; [7],1 µg/mL
same,MIC,P. aeruginosa [2]; [8],1 µg/mL
same,MIC,"P. aeruginosa [2]; P. aeruginosa isolate 31, strain U7688-1",2 µg/mL
same,MIC,"P. aeruginosa [2]; P. aeruginosa isolate 33, strain W5483-2",2 µg/mL
same,MIC,A. calcoaceticus; [9],2 µg/mL
same,MIC,"E. cloacae; E. cloacae isolate 14, strain 938-2",1 µg/mL
same,MIC,"E. cloacae; E. cloacae isolate 15, strain B5546",1 µg/mL
KKSFFKKLTSVASSVLS [MBI21A14],MIC B. Subtilis,B. Subtilis,>128 µg/mL
same,MIC K147,S. aureus,>128 µg/mL
same,MIC SAP,S. aureus,>128 µg/mL
same,MIC E. coli 0111:B4,E. coli,>128 µg/mL
same,MIC E. faecalis,E. faecalis,>128 µg/mL
same,MIC C610,C610,128 µg/mL
same,MIC S. epi 0017,S. epidermis,>128 µg/mL
same,MIC H103,P. aeruginosa [1],>128 µg/mL
